These results are taken from patent publication US20090041760A1, “RETROVIRAL IMMUNOTHERAPY” (priority 2000, published 2009).

Assay [1] deals with CD4+, CD8+ and CD25+CD4+ T cells of spleen. The experiment in a line: FACS analysis of spleen cells following Vb therapy on day 14 post infection. The assay is classed as in vivo, mice. As for the experimental part: FACS analysis of CD4^+ and CD8^+ T cells prepared from spleens of mice treated with Vb on Day 14 pi was performed (FIG. 6). CD25^+CD4^+ T cells were also examined as they have recently been identified as having an important regulatory function in mouse models of autoimmune disease and tumour immunology (Takahashi et al., 1998; Shimizu et al., 1999). It is possible that these cells may play a role in the regulation of the immune response to MAIDS. Day 14 pi and uninfected control mice were given Vb therapy and the spleens collected at 48 hours post Vb treatment.
For orientation: A flow cytometer gives signals particle by particle.

The subject of assay [2] is MAIDS virus. The experiment in a line: Rechallenge with MAIDS virus following protective vinblastine therapy. Type of assay: in vivo, mice. To be noted: Vb at day 14 pi, rechallenge at 3 or 8 weeks post Vb treatment. An excerpt: To determine if mice protected from MAIDS by the day 14 pi Vb treatment develop an immune response which would then protect them from a subsequent rechallenge with the MAIDS virus groups of mice, given the Vb therapy at day 14 pi, were rechallenged with the MAIDS virus at 3 or 8 weeks post Vb treatment. […] This is not an unexpected result as the dominant immunosuppression by the regulator population of cells would have been restored as a consequence of the immune effector response to the second (untreated) infection.

Assay [3] deals with LP-BM5 murine leukemia virus (MuLV). Kind of assay: MAIDS development in LP-BM5 infected mice after a single dose of vinblastine at different times post infection. The assay is classed as in vivo, C57BL/6 mice. An excerpt: A murine AIDS (MAIDS) pathology induced by LP-BM5 murine leukemia virus (MuLV) in susceptible mice is an effective tool to investigate mechanisms of retrovirus-induced immunodeficiency. […] Infection of a susceptible strain such as C57BL/6 mice with LP-BM5 leads to chronic splenomegaly, hypergammaglobulinaemia and development of immunodeficiency in both T and B cells. In vitro, there is a progressive impairment in the responsiveness of T-cells and B-cells to mitogenic or specific antigenic stimuli. In vivo, infected mice become increasingly susceptible to challenge with a variety of opportunistic organisms and can develop B-cell lymphoma. Deaths are first observed at 8-10 weeks post-infection (pi), and all mice die within 24 weeks (FIG. 1). These alterations in immune function reflect complex changes in the phenotype and function of all components of the immune network.
The treatment with a single dose of the anti-mitotic agent vinblastine (Vb) at different times pi is able to prevent the development/progression of MAIDS. […] Clearly, the Vb treatment is remarkably therapeutic when administered at 6 hr or 14 days pi with 100% ( 10/10) and 74% ( 20/27) of mice, respectively, showing no signs of MAIDS development at 10 weeks pi (as determined by spleen weight, histology and FACS analysis). […] Additional experiments have provided results of 100% of mice having no signs of MAIDS development at least 12 months after Vb treatment 14 days pi (data not shown). Although not as pronounced as the protection seen after day 14 treatment, moderate protection from MAIDS development was still observed. […] The total protection from MAIDS development seen in mice given Vb at 6 hrs pi is not unexpected as the virus replicates in actively replicating cells which are the target of the anti-mitotic drug thus any cells infected with the virus are killed by the Vb preventing the virus from rapidly establishing an infection in the host. However, the highly protective effect observed after a single treatment with Vb at 14 days pi is quite remarkable as, by this stage, the viral infection is well established and the early disease processes are well underway. We propose that this highly therapeutic effect is due to the Vb targeting a particular subset of immune regulator cells during their expansion phase and thereby altering the immune response to the viral infection. […] This leads to long term disease free survival for many months post-infection and treatment.
Spleens from the Day 14 pi Vb treated mice as well as infected and uninfected control mice were weighed and examined histologically. The splenic architecture of all MAIDS infected mice was profoundly disorganised as previously reported (Hartley et al., 1989).

Assay [4] deals with MAIDS virus. The experiment in a line: Adoptive transfer of CD4+ CD25+/- cells into MAIDS infected, day 14 Vinblastine treated mice. The assay is classed as in vivo. To be noted: uninfected donor cells into MAIDS-infected day 14 Vb-treated recipients; n=5. An excerpt: An adoptive transfer experiment was designed to directly test the hypothesis that CD4+ CD25+ T cells are functioning as the regulator cells in the murine AIDS model. The same approach used to determine that the regulator cells are CD4+ T cells was used to test whether the CD4+ CD25+ subset are the target of day 14 Vinblastine treatment. […] 2.0×10^6 cells of the regulator CD4+ CD25+ phenotype were purified from single cell suspensions of donor spleens using MACS beads (Miltenyi Biotec) using two positive selection steps. The cells were then tested for purity by flow cytometry (both CD4+ CD25+ and CD4+ CD25− fractions were of >90% purity) and viability using trypan blue exclusion prior to transfer into uninfected (control) and MAIDS infected day 14 Vinblastine treated mice. CD4+ CD25− cells were also transferred to allow that the regulator cells may not present in the CD25+ fraction and also to allow for the possibility that these putative regulator cells may lose CD25 expression as they expand and become activated as was reported by Gavin et al., 2002.
Mice receiving adoptive transfer of cells were either uninfected (control) or MAIDS infected and day 14 Vinblastine treated to examine whether the transfer of cells would result in disease progression. […] Disease progression was assessed by spleen weight at 10 weeks post MAIDS infection.

The test system of the next assay is murine T cell lymphoma. To be noted: cited from earlier work.
Assay [5] deals with MAIDS virus. Kind of assay: Spleen cell transfer into MAIDS infected, day 14 Vb treated mice. Type of assay: in vivo. The source says: The experiments illustrated in FIG. 7 were designed to determine if a single dose of Vb, administered at 14 days pi, is eliminating a population of expanding CD4^+regulator T cells and thereby releasing effector cells from down-regulation and clearing the host of the MAIDS virus.
Mice were infected with MAIDS, received day 14 pi Vb treatment and then received an adoptive transfer of ~10^7 spleen cells from donor mice prepared as outlined in FIG. 7. For each experiment [designated (I), (II) and (III)] groups consisted of 7 recipient mice and 9 donor mice. Mice in Group I received whole spleens from infected mice that had not received any Vb treatment. Mice in Group II received whole spleen cell preparations, from infected mice, that had been depleted of CD4^+ cells using a FACS cell sorter after staining with fluorochrome-labeled anti-CD4 monoclonal antibody. […] Mice in Group III received whole spleens from infected donor mice that also received Vb treatment on day 14 pi.

The structures appear in SMILES notation. Where two headings read alike, the source gives them in different places.

For the compound `CC[C@]1(O)C[C@@H]2CN(CCc3c([nH]c4ccccc34)[C@@](C(=O)OC)(c3cc4c(cc3OC)N(C)[C@H]3[C@@](O)(C(=O)OC)[C@H](OC(C)=O)[C@]5(CC)C=CCN6CC[C@]43[C@@H]65)C2)C1` [Vb, vinblastine], the “cell subsets targeted in MAIDS infected mice (uninfected to infected ratios)” value in assay [1] (CD4+ T cells and CD25+CD4+ T cells, 48 hours post Vb at day 14 pi) is recorded as “preferentially targeted”. For the same compound, the “effect on spleen cell subsets” value in assay [1] (spleens collected 48 hours post Vb, day 14 pi and uninfected mice) is “all cell subsets are reduced”. For the same compound, in the assay on MAIDS virus [2], the “protection from viral rechallenge (splenomegaly, lymphadenopathy at 20 weeks)” value is listed as “not protected from viral rechallenge”. The “mice protected from any splenomegaly at 20 weeks pi” value in assay [3] (Vb at day 14 pi, 4/5 mice) is 80%. Also, the “mice having no signs of MAIDS development at least 12 months after treatment” value in assay [3] (Vb treatment 14 days pi, additional experiments, data not shown) was determined as 100%. In addition, the “splenic architecture (histology) at 10 weeks pi” value in assay [3] (day 14 pi Vb treated mice with normal spleen weights (below 0.25 g)) is “indistinguishable from that of uninfected control mice”. In addition, the “FACS analysis of spleen cells: cellular proportions (CD4+, CD8+ and B cells) and distributions at 10 weeks pi” value in assay [3] (day 14 pi Vb treated mice, preliminary, data not shown) is “like those observed in normal uninfected mice”. The “mice showing no signs of MAIDS development at 10 weeks pi (spleen weight, histology, FACS analysis)” value in assay [3] (single 6 mg/kg i.p. dose at 6 hr pi, 10/10 mice) worked out at 100%; in assay [3] (single 6 mg/kg i.p. dose at 14 days pi, 20/27 mice) it was 74%. Further, the “mice showing protective effect (no signs of MAIDS) at 10 weeks pi” value in assay [3] (single 6 mg/kg i.p. dose at 6 days pi, 6/13 mice) came out at 46%. For the same compound, the “protection against MAIDS development” value in assay [3] (single 6 mg/kg i.p. dose at day 2 pi) and in assay [3] (single 6 mg/kg i.p. dose at day 7 pi) was “no protection against MAIDS development” throughout. The “disease progression (spleen weight at 10 weeks post MAIDS infection) after transfer of CD4+ CD25+/- cells” value with MAIDS virus [4] is “disease progression was readily apparent”. Besides, the effect on tumour result in the assay with murine T cell lymphoma (single dose at day 10 following tumour inoculation) was “enhancement”; with murine T cell lymphoma (single dose at days 4, 6, 13 and 15 following tumour inoculation), “regression”. Also, the “protection from MAIDS development after spleen cell transfer” value in the assay on MAIDS virus [5] (Group I: ~10^7 whole spleen cells from MAIDS infected donors without Vb) is on record as “completely prevented Vb from protecting mice from MAIDS development”; with MAIDS virus [5] (Group II: donor spleen cells depleted of CD4+ cells by FACS sorting), “the protective effect of Vb was not overcome”; in the assay on MAIDS virus [5] (Group III: spleen cells from infected donors also given day 14 Vb), “fully protected from MAIDS development”.
